The record followed here is PubChem BioAssay (NCI).

Among the test systems are HS 578T breast; IGROV1 ovarian; MOLT-4 leukemia; NCI-H460 lung; NCI/ADR-RES ovarian; OVCAR-5 ovarian; UACC-257 melanoma; UO-31 renal; DLD-1 colon; SNB-78 CNS.
Holding throughout (assay): NCI tumour cell line growth inhibition, 48 h

SMILES strings stand for the structures. Where “and” joins values, the source holds several entries; their conditions need not be identical. Equal values may be shown once.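 Grown in 96-well plates, cells were treated for 48 hours with each compound at five concentrations. Insufficient inhibition: endpoint recorded as highest concentration tested. GI50 marks 50% less growth. TGI is the concentration that stops growth completely.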

On to `O=c1[nH]c(=O)n(C2CC(O)C(CO)O2)cc1Br` (configuration not stated), for which the TGI with HS 578T breast, with IGROV1 ovarian, in the assay on MOLT-4 leukemia, in the assay on NCI-H460 lung, in the assay on NCI/ADR-RES ovarian and in the assay on OVCAR-5 ovarian was over 100 µM each time. The TGI in the assay with UACC-257 melanoma and in the assay with UO-31 renal was over 100 µM in each case.
As to `NC(=O)/N=C/c1c(O)c2ccccc2oc1=O`, the TGI in the assay on DLD-1 colon, in the assay with IGROV1 ovarian, in the assay with MOLT-4 leukemia, in the assay with NCI-H460 lung, in the assay with OVCAR-5 ovarian and with SNB-78 CNS was over 100 µM throughout. Further, the TGI in the assay on UACC-257 melanoma and in the assay with UO-31 renal was over 100 µM in each case.
As for `Cn1c(=O)c2[nH]c(SC/C(=N/O)c3ccc(Br)cc3)nc2n(C)c1=O`, the GI50 in the assay with HS 578T breast was 3.05 µM; with IGROV1 ovarian it was 2.27 µM; in the assay with MOLT-4 leukemia it was 20.4 µM. The TGI in the assay on HS 578T breast turned out to be 7.9 µM; in the assay on IGROV1 ovarian, 5.55 µM; with MOLT-4 leukemia, 64 µM.
Consider `O=S(O)c1cc(Cl)c(O)c(Cl)c1`, for which the TGI with DLD-1 colon, with MOLT-4 leukemia, in the assay on NCI-H460 lung, with OVCAR-5 ovarian, with SNB-78 CNS and in the assay on UACC-257 melanoma was over 100 µM throughout. For the same compound, the TGI in the assay on UO-31 renal was over 100 µM.
For the compound `O=C1C(=C([O-])c2ccccc2)C(=O)c2ccccc21.O=C1C(=C([O-])c2ccccc2)C(=O)c2ccccc21.[Ni+2]`, the GI50 in the assay on DLD-1 colon was 40.2 µM; in the assay on IGROV1 ovarian, 48.2 µM; in the assay with NCI-H460 lung it was 33.9 µM; with OVCAR-5 ovarian, 13.4 µM; in the assay on UACC-257 melanoma, 83.3 µM; with UO-31 renal, 27.2 µM. For the same compound, the TGI in the assay on DLD-1 colon, with IGROV1 ovarian, with NCI-H460 lung, with OVCAR-5 ovarian, in the assay with UACC-257 melanoma and with UO-31 renal was over 100 µM each time.
As to `COc1ccc2c3/c(=C\c4ccc(N(C)C)cc4)c4ccccc4n3[n+](C)c2c1`, the GI50 in the assay with HS 578T breast was 0.162 µM; with IGROV1 ovarian, 0.24 µM; in the assay with MOLT-4 leukemia it was 0.0944 µM; in the assay on NCI-H460 lung it was 0.16 µM; in the assay with NCI/ADR-RES ovarian it was 4.31 µM; with OVCAR-5 ovarian, 0.472 µM. Also, the GI50 with UACC-257 melanoma was 0.0346 µM; with UO-31 renal, 0.484 µM. Moreover, the TGI in the assay with IGROV1 ovarian was over 100 µM; with MOLT-4 leukemia, 27.9 µM; in the assay with NCI-H460 lung, 28.8 µM; in the assay with NCI/ADR-RES ovarian, over 55.8 µM; in the assay on OVCAR-5 ovarian, 2.22 µM; in the assay on UACC-257 melanoma it was 0.424 µM. The compound also registered a TGI in the assay with UO-31 renal of 1.66 µM.
Regarding `CC1OC(O[C@@H]2C=C3CC[C@@H]4[C@H](CC[C@]5(C)[C@@H](c6ccc(=O)oc6)CC[C@]45O)[C@@]3(C)CC2)C(O)C(OC2OC(CO)C(O)C(O)C2O)C1O` (some centres not stated), the TGI in the assay with DLD-1 colon is 0.0253 µM; in the assay on IGROV1 ovarian, 0.0219 µM and 0.0562 µM; in the assay with NCI-H460 lung, 0.00143 µM; in the assay with OVCAR-5 ovarian, 0.039 µM and 0.0523 µM; with SNB-78 CNS, 0.033 µM; in the assay with UACC-257 melanoma, 0.0441 µM and 0.0265 µM. Besides, the TGI in the assay on UO-31 renal was 0.00316 µM and 0.0263 µM. The GI50 in the assay with OVCAR-5 ovarian was 0.000256 µM; in the assay on UACC-257 melanoma, 0.00126 µM.
Regarding `COC(=O)c1c(O)ccc2c1c1c(n2Cc2cccc(C)c2)C(=O)c2ccccc2C1`, the TGI in the assay with HS 578T breast was over 75 µM; in the assay on IGROV1 ovarian, over 75 µM; in the assay with MOLT-4 leukemia, 44.5 µM; in the assay with NCI-H460 lung it was over 75 µM; in the assay on NCI/ADR-RES ovarian, over 75 µM; in the assay on OVCAR-5 ovarian, over 75 µM. The TGI in the assay with UACC-257 melanoma and in the assay with UO-31 renal was over 75 µM in each case.
For the compound `COc1cc(O)c(Cc2ccccc2O)c(O)c1C(=O)CCc1ccccc1`, the TGI in the assay with DLD-1 colon came out at 30.7 µM; in the assay on IGROV1 ovarian, 29.8 µM; in the assay on MOLT-4 leukemia it was 10.5 µM; in the assay with NCI-H460 lung, 12.2 µM; with NCI/ADR-RES ovarian, 18.9 µM; in the assay on OVCAR-5 ovarian, 21.8 µM. Moreover, the TGI worked out at 31.4 µM in the assay with SNB-78 CNS, 16.1 µM in the assay on UACC-257 melanoma and 23.4 µM in the assay on UO-31 renal.
